Assay results: patent US9976141B2, “Compositions and methods for inhibiting gene expression of Hif2alpha” (Arrowhead Madison Inc., priority 2015, dated 2018)

Test system: human (tumor) Hif2α (EPAS1) mRNA
Assay: Hif2α knockdown in orthotopic RCC tumor bearing mice, single injection of RNAi trigger-delivery polymer conjugate, RT-qPCR (Table 7)
Format: in vivo
Details: single tail vein injection, relative to isotonic glucose
Method in brief: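 Female athymic nude mice carried orthotopic A498-SEAP ccRCC kidney tumours, used 5–6 weeks after implantation. They received one tail-vein injection of RGD-targeted Hif2α RNAi trigger–polymer conjugate or isotonic glucose. Tumour Hif2α mRNA was measured by TaqMan RT-qPCR normalised to CycA (ΔΔCT) and expressed relative to glucose-treated mice.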

[1] = RNAi trigger 80 μg, polymer 126 400 μg
[2] = RNAi trigger 150 μg, polymer 100A 300 μg

Row | Substance | Relative Expression day 4 (Hif2α mRNA in kidney tumor) [1] | Relative Expression day 4 (Hif2α mRNA in kidney tumor) [2]
1 | AD01294 (antisense TUUCAUGAAAUCGUUACGUCGGCUGU; sense UAUAUCGACGUAACGAUUUCAUGAAA; Hif2alpha RNAi agent antisense strand; modified_base 25 modified base = “2′-hydroxy corresponding nucleoside”; modified_base 2,4,6,8,10,14,16,18,20 /mod_base = “2′-deoxy-2′-fluoro corresponding nucleoside”; modified_base 3,5,7,9,11,12,13,15,17,19,21,22,23,24,26 /mod_base = “2′-O-methyl corresponding nucleoside”; modified_base 2,3,23,24 /mod_base = “5′-phosphorothioate corresponding nucleotide”; Hif2alpha RNAi agent sense strand; modified_base 2,4 modified base = “2′-hydroxy corresponding nucleoside”; modified_base 6,8,10,12,14,15,16,18,20,22,24,26 /mod_base = “2′-deoxy-2′-fluoro correspondin) | 0.17 | 
2 | AD01295 (antisense TUUCAUGAAAUCGUUACGUUGGCUAU; sense UAUAUCAACGUAACGAUUUCAUGAAA; Hif2alpha RNAi agent antisense strand; modified_base 25 modified base = “2′-hydroxy corresponding nucleoside”; modified_base 2,4,6,8,10,14,16,18,20 /mod_base = “2′-deoxy-2′-fluoro corresponding nucleoside”; modified_base 3,5,7,9,11,12,13,15,17,19,21,22,23,24,26 /mod_base = “2′-O-methyl corresponding nucleoside”; modified_base 2,3,23,24 /mod_base = “5′-phosphorothioate corresponding nucleotide”; Hif2alpha RNAi agent sense strand; modified_base 2,4 modified base = “2′-hydroxy corresponding nucleoside”; modified_base 6,8,10,12,14,15,16,18,20,22,24,26 /mod_base = “2′-deoxy-2′-fluoro correspondin) | 0.22 | 
3 | AD01296 (antisense TUUCAUGAAAUCGUUACGUUGGCUTT; sense UAUAUCAACGUAACGAUUUCAUGAAA; Hif2alpha RNAi agent antisense strand; modified_base 2,4,6,8,10,14,16,18,20 /mod_base = “2′-deoxy-2′-fluoro corresponding nucleoside”; modified_base 3,5,7,9,11,12,13,15,17,19,21,22,23,24 /mod_base = “2′-O-methyl corresponding nucleoside”; modified_base 2,3,25,26 /mod_base = “5′-phosphorothioate corresponding nucleotide”; Hif2alpha RNAi agent sense strand; modified_base 2,4 modified base = “2′-hydroxy corresponding nucleoside”; modified_base 6,8,10,12,14,15,16,18,20,22,24,26 /mod_base = “2′-deoxy-2′-fluoro corresponding nucleoside”; modified_base 1,3,5,7,9,11,13,17,19,21,23,25 /mod_base = “2′) | 0.21 | 
4 | AD01404 (antisense TUUCAUGAAAUCGUUACGUCGGCUAU; sense UAUAUCGACGUAACGAUUUCAUGAAA; Hif2alpha RNAi agent antisense strand; modified_base 25 modified base = “2′-hydroxy corresponding nucleoside”; modified_base 2,4,6,10,12,14,16,18,20 /mod_base = “2′-deoxy-2′-fluoro corresponding nucleoside”; modified_base 3,5,7,9,11,13,15,17,19,21,22,23,24,26 /mod_base = “2′-O-methyl corresponding nucleoside”; modified_base 8 /mod_base = “2′-3′ seco corresponding nucleotide”; modified_base 2,3,23,; Hif2alpha RNAi agent sense strand; modified_base 2,4 modified base = “2′-hydroxy corresponding nucleoside”; modified_base 6,8,10,12,14,16,18,20,22,24,26 /mod_base = “2′-deoxy-2′-fluoro correspondi) |  | 0.58
5 | AD01405 (antisense TUUCAUGAAAUCGUUACGUCGGCUAU; sense UAUAUCGACGUAACGAUUUCAUGAAA; Hif2alpha RNAi agent antisense strand; modified_base 25 modified base = “2′-hydroxy corresponding nucleoside”; modified_base 2,4,6,10,12,14,16,18,20 /mod_base = “2′-deoxy-2′-fluoro corresponding nucleoside”; modified_base 3,5,7,9,11,13,15,17,19,21,22,23,24,26 /mod_base = “2′-O-methyl corresponding nucleoside”; modified_base 8 /mod_base = “2′-3′ seco corresponding nucleotide”; modified_base 2,3,23,; Hif2alpha RNAi agent sense strand; modified_base 2,4 modified base = “2′-hydroxy corresponding nucleoside”; modified_base 6,8,10,12,14,16,18,20,22,24,26 /mod_base = “2′-deoxy-2′-fluoro correspondi) |  | 0.51
6 | AD01406 (antisense TUUCAUGAAAUCGUUACGUCGGCUAU; sense UAUAUCGACGUAACGAUUUCAUGAAA; Hif2alpha RNAi agent antisense strand; modified_base 25 modified base = “2′-hydroxy corresponding nucleoside”; modified_base 2,4,6,10,12,14,16,18,20 /mod_base = “2′-deoxy-2′-fluoro corresponding nucleoside”; modified_base 3,5,7,9,11,13,15,17,19,21,22,23,24,26 /mod_base = “2′-O-methyl corresponding nucleoside”; modified_base 8 /mod_base = “2′-3′ seco corresponding nucleotide”; modified_base 2,24 /m; Hif2alpha RNAi agent sense strand; modified_base 2,4 modified base = “2′-hydroxy corresponding nucleoside”; modified_base 6,8,10,12,14,16,18,20,22,24,26 /mod_base = “2′-deoxy-2′-fluoro correspondi) |  | 0.45
7 | AD01407 (antisense TUUCAUGAAAUCGUUACGUCGGCUAU; sense UAUAUCGACGUAACGAUUUCAUGAAA; Hif2alpha RNAi agent antisense strand; modified_base 25 modified base = “2′-hydroxy corresponding nucleoside”; modified_base 2,4,6,10,12,14,16,18,20 /mod_base = “2′-deoxy-2′-fluoro corresponding nucleoside”; modified_base 3,5,7,9,11,13,15,17,19,21,22,23,24,26 /mod_base = “2′-O-methyl corresponding nucleoside”; modified_base 8 /mod_base = “2′-3′ seco corresponding nucleotide”; modified_base 2,24 /m; Hif2alpha RNAi agent sense strand; modified_base 2,4 modified base = “2′-hydroxy corresponding nucleoside”; modified_base 6,8,10,12,14,16,18,20,22,24,26 /mod_base = “2′-deoxy-2′-fluoro correspondi) |  | 0.47
8 | AD01408 (antisense TUUCAUGAAAUCGUUACGUCGGCUAU; sense UAUAUCGACGUAACGAUUUCAUGAAA; Hif2alpha RNAi agent antisense strand; modified_base 25 modified base = “2′-hydroxy corresponding nucleoside”; modified_base 2,4,6,8,10,12,14,16,18,20 /mod_base = “2′-deoxy-2′-fluoro corresponding nucleoside”; modified_base 3,5,7,11,13,15,17,19,21,22,23,24,26 /mod_base = “2′-O-methyl corresponding nucleoside”; modified_base 9 /mod_base = “2′-3′ seco corresponding nucleotide”; modified_base 2,3,23,; Hif2alpha RNAi agent sense strand; modified_base 2,4 modified base = “2′-hydroxy corresponding nucleoside”; modified_base 6,8,10,12,14,16,18,20,22,24,26 /mod_base = “2′-deoxy-2′-fluoro correspondi) |  | 0.50
9 | AD01409 (antisense TUUCAUGAAAUCGUUACGUCGGCUAU; sense UAUAUCGACGUAACGAUUUCAUGAAA; Hif2alpha RNAi agent antisense strand; modified_base 25 modified base = “2′-hydroxy corresponding nucleoside”; modified_base 2,4,6,8,10,12,14,16,18,20 /mod_base = “2′-deoxy-2′-fluoro corresponding nucleoside”; modified_base 3,5,7,11,13,15,17,19,21,22,23,24,26 /mod_base = “2′-O-methyl corresponding nucleoside”; modified_base 9 /mod_base = “2′-3′ seco corresponding nucleotide”; modified_base 2,3,23,; Hif2alpha RNAi agent sense strand; modified_base 2,4 modified base = “2′-hydroxy corresponding nucleoside”; modified_base 6,8,10,12,14,16,18,20,22,24,26 /mod_base = “2′-deoxy-2′-fluoro correspondi) |  | 0.55
